This passage reports IC50 results from patent US9884063B2, “Amido-substituted azole compounds” (Bayer Pharma Aktiengesellschaft, priority 2014, dated 2018).

Test [1] deals with wildtype Wnt signaling cascade. Description: HEK293 TOP Assay (Super TopFlash luciferase reporter, Wnt-3a stimulated). In kind it is cell-based. Particulars: Homo sapiens, HEK293, 16 h. Summed up:
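HEK293 cells stably carrying Super TopFlash (TOP) or FOP reporter, stimulated with recombinant human Wnt-3a (2500–5 ng/ml, two-fold steps). Both lines incubated in parallel with compound from 50 μM to 15 nM (3.16-fold) in CAFTY buffer pH 7.4 with 2 mM Ca2+ and 0.01% BSA; selectivity judged TOP vs FOP.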

Another test concerns the target T1, TNKS2 (Homo sapiens, UniProt Q9H2K2).
T1 sequence (Q9H2K2 1-1166): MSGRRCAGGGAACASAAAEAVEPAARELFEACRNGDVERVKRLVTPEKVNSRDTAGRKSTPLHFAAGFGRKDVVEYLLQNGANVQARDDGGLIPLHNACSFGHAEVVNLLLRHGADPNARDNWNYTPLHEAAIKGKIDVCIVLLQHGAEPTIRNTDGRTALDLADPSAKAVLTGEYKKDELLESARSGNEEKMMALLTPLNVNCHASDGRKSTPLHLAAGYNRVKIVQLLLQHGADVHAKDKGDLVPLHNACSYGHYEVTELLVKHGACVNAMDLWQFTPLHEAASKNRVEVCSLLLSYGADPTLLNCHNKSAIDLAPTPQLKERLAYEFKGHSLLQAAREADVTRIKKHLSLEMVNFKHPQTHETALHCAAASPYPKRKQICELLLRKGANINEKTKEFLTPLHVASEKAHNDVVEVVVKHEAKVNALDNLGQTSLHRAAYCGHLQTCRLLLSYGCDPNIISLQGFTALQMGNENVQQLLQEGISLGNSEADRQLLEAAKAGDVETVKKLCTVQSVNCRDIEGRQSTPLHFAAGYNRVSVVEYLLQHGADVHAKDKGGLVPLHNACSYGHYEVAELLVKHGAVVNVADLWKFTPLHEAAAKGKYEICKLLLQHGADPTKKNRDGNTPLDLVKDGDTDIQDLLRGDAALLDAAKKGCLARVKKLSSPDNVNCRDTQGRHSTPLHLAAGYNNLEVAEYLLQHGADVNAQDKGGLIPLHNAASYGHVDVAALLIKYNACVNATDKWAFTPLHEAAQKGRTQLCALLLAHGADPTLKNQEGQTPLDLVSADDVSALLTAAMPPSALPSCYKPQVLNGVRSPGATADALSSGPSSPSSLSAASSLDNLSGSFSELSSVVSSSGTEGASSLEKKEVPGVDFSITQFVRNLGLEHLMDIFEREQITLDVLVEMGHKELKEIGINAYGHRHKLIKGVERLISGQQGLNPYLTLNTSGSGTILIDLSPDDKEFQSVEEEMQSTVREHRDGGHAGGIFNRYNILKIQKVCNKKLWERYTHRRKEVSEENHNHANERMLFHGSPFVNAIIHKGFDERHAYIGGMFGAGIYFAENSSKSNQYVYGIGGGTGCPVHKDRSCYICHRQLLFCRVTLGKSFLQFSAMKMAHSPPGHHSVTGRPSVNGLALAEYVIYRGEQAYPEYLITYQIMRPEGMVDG
Description: Modified TNKS2 Assay 2 (auto-parsylation, [3H]-NAD+ SPA). It is filed as biochemical. Particulars: 6 nM TNKS2, 96 well. As for the experimental part: The potency of selected compounds according to the invention was assessed applying an modified in vitro inhibition assay. Here, the TNKS2 catalyzed NAD^+-dependent ribosylation of the enzyme itself (auto-parsylation) was detected using [^3H]-NAD^+ as substrate and applying the scintillation proximity assay (SPA) method to detect tritium-labeled, parsylated TNKS2. The intensity of the readout signal is proportional to the incorporated [^3H]-NAD^+. Inhibition of TNKS2 leads to a decreased incorporation of [^3H]-NAD^+ and consequently to a lower readout signal intensity. The concentration of a test compound which inhibits the enzyme activity by 50% (corresponds to half of the normed readout signal intensity) is reported as IC50.
The assay was conducted in a 96 well MTP format with the identical TNKS2 enzyme sample and NAD^+ sample as in the histone ribosylation assay with the following modifications: TNKS2 enzyme sample was diluted with a modified assay buffer (50 mM MES pH 7.0, 1 mM DTT, 0.01% Triton X-100) to a final concentration of 6 nM TNKS2 and 10×NAD^+ solution was diluted with the modified assay buffer (s. above) to a final 0.445×NAD^+ solution doped with 100 Bq/ul [^3H]-NAD^+ [Catalog #NET443H050UC, Perkin Elmer, Waltham, Mass., USA]. Substrate solution (10 ul) was incubated with different test compound concentrations (2.5 ul in 10% DMSO in modified assay buffer) or control (2.5 ul 10% DMSO in modified assay buffer only) and enzyme (10 ul) over night at room temperature. Incorporated tritium was measured after addition of 50 ul SPA beads (1 mg/ml) [Catalog #RPNQ0095 20 mg/ml, Perkin Elmer, Waltham, Mass., USA; diluted 1:10 with Dulbecco's phosphate buffered saline, PBS Catalog #D8537, Sigma-Aldrich, Steinheim, Germany] and detection of the photon emission with a beta count plate reader [Wallac MicroBeta®, Perkin Elmer, Waltham, Mass., USA].

The target of the next test is T2, TNKS1 (Homo sapiens, UniProt O95271).
T2 sequence (O95271 1-1327): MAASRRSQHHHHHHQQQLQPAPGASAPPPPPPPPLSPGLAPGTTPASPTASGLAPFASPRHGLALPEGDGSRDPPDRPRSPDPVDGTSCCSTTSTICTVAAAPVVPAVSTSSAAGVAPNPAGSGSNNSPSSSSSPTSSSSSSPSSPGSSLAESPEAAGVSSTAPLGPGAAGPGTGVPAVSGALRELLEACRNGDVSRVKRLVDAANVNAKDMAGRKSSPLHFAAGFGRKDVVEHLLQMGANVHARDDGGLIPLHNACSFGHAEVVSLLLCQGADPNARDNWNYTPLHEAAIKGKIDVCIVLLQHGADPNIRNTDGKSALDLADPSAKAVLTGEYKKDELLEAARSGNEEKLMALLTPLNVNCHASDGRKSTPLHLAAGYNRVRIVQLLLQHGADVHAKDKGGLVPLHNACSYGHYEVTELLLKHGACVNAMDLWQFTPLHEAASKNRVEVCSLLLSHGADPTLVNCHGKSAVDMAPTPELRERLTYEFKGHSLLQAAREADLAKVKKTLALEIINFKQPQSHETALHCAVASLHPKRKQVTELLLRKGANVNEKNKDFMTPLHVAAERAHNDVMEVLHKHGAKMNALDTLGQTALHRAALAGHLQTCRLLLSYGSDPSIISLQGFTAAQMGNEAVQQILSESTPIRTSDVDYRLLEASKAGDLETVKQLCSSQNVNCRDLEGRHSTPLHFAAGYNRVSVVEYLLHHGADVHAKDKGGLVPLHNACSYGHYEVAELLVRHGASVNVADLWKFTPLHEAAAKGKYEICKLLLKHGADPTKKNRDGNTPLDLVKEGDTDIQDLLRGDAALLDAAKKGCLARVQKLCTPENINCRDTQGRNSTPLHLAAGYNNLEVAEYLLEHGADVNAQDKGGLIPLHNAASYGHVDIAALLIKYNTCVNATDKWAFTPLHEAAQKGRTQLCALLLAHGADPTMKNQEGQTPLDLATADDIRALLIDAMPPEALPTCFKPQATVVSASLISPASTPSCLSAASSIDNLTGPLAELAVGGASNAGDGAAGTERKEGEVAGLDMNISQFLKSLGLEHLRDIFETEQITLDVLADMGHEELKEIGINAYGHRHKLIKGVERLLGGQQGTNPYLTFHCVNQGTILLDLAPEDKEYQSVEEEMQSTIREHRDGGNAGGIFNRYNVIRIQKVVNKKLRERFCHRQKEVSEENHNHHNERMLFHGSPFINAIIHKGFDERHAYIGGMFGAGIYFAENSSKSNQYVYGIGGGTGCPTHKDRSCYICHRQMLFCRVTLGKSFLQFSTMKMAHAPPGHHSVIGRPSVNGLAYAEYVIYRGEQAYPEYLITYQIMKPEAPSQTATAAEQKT
Description: Modified TNKS1 Assay 3 (BPS kit #80573, biotin-NAD+, 96 well). It is filed as biochemical. Particulars: human TNKS1, BPS kit #80573, 96 well. As for the experimental part:
The potency of the compounds against human TNKS1 according to the invention was assessed using a commercially available biotin/streptavidin binding assay kits from BPS Bioscience, San Diego, USA (Catalog #80573 for TNKS1). The incorporation of a biotin-labeled NAD+ during the […] catalyzed ribosylation of a suitable protein substrate was detected using with a streptavidin-HRP coupled chemi-luminescent readout. The intensity of the readout signal is proportional to the incorporated NAD^+. Inhibition of TNKS1 leads to a decreased incorporation of NAD^+ and consequently to a lower readout signal intensity in the corresponding TNKS1 assays. The concentration of a test compound that inhibits the enzyme activity by 50% (corresponds to half of the normed readout signal intensity) is reported as IC50. The assay was conducted in a 96 well MTP format according to the manufacturer's protocol and using a BMG Pherastar MTP reader [BMG-Labtech, Offenburg, Germany].

For test [2], the system named is HEK293 FOP control reporter cell line. Description: HEK293 FOP Assay (FOP control vector luciferase reporter). It is filed as cell-based. Particulars: Homo sapiens; HEK293 FOP control reporter cells, 16 hours, luciferase; dilution series from 50 μM. As for the experimental part: In a parallel approach, HEK293 cells were cotransfected with the FOP control vector and pcDNA3. The FOP vector is identical to the TOP construct, but it contains instead of functional TCF elements a randomized, non-functional sequence. For this transfection a stable transfected cell line was generated as well, based on selection with Geneticin (1 mg/ml).
In preparation of the assay, the two cell lines were plated 24 hrs before beginning the test at 10000 cells per well in a 384 micro titre plate (MTP) in 30 μl growth medium. […] The recombinant human Wnt-3a was thereby applied between 2500 and 5 ng/ml in two-fold dilution steps.
Selective inhibitory activity for small molecules on the wildtype Wnt pathway was determined after parallel incubation of both (TOP and FOP) HEK293 reporter cell lines with a compound dilution series from 50 μM to 15 nM in steps of 3.16-fold dilutions in CAFTY buffer (130 mM sodium chloride, 5 mM potassium chloride, 20 mM HEPES, 1 mM magnesium chloride, 5 mM sodium bicarbonate, pH 7.4) containing 2 mM Ca^2+ and 0.01% BSA.
The compounds were thereby serially prediluted in 100% DMSO and thereafter 50 fold into the CAFTY compound dilution buffer (described above).
On the technique in general: A reporter such as luciferase makes a cellular process visible.

[3] abbreviates: HEK293 TOP reporter cell line, Wnt-3a at EC50, 16 hours incubation, compound dilution series 50 μM to 15 nM.

Each structure is given as a SMILES string. pIC50: −log10 of the molar value.

In general, pIC50 refers to −log10 of the IC50, conventionally taken in molar units. Read a high pIC50 as a small IC50. For the compound `CNC(=O)c1nc[nH]c1C(=O)Nc1ccc(NC(=O)c2ccccc2S(C)(=O)=O)cc1` [Example 249, N^4-methyl-N^5-(4-{[2-(methylsulfonyl)benzoyl]amino}phenyl)-1H-imidazole-4,5-dicarboxamide], the pIC50 in test [1] (setting [3]) is 5.62; on TNKS2, 5.24.

On to `CN(C)C(C)(C)CNC(=O)c1nc[nH]c1C(=O)Nc1ccc(NC(=O)c2ccc(F)cc2Cl)cc1` [Example 412, N^5-{4-[(2-chloro-4-fluorobenzoyl)amino]phenyl}-N^4-[2-(dimethylamino)-2-methylpropyl]-1H-imidazole-4,5-dicarboxamide], for which the figures for the pIC50 (in test [1] (setting [3]); against TNKS1) were 6.85 and 7.52, respectively.

Turning to `CNC(=O)c1nc[nH]c1C(=O)Nc1ccc(NC(=O)c2cccnc2Cl)cc1` [Example 2, N^5-(4-{[(2-chloropyridin-3-yl)carbonyl]amino}phenyl)-N^4-methyl-1H-imidazole-4,5-dicarboxamide], the negative logarithm of the IC50 (pIC50) is 5.15 in test [1] (setting [3]); 5.21 in test [1] (HEK293 TOP reporter cells, Wnt3a at EC50, 16 hours, luciferase); below 5.00 on TNKS2; at most 4.30 in test [2].

Turning to `CN1CCCC1CCNC(=O)c1nc[nH]c1C(=O)Nc1ccc(NC(=O)c2ccc(F)cc2Cl)cc1` (stereo not drawn) [Example 385, N^5-{4-[(2-chloro-4-fluorobenzoyl)amino]phenyl}-N^4-[2-(1-methylpyrrolidin-2-yl)ethyl]-1H-imidazole-4,5-dicarboxamide], the values for the pIC50 (in test [1] (setting [3]); at TNKS1) were 6.51 and 7.30, respectively.

Consider `O=C(Nc1ccc(NC(=O)c2[nH]cnc2C(=O)NCCN2CCS(=O)(=O)CC2)cc1)c1ccc(F)cc1Cl` [Example 402, N^5-{4-[(2-chloro-4-fluorobenzoyl)amino]phenyl}-N^4-[2-(1,1-dioxidothiomorpholin-4-yl)ethyl]-1H-imidazole-4,5-dicarboxamide], for which the pIC50 in test [1] (setting [3]) is 6.77; on TNKS1, 6.59.

Consider `CNC(=O)c1nc[nH]c1C(=O)Nc1ccc(NC(=O)c2ccccc2F)cc1` [Example 326, N^5-{4-[(2-fluorobenzoyl)amino]phenyl}-N^4-methyl-1H-imidazole-4,5-dicarboxamide], for which the pIC50 in test [1] (setting [3]) was 5.52; against TNKS2, below 5.00.

Regarding `CCNC(=O)c1nc[nH]c1C(=O)Nc1ccc(NC(=O)c2ccc(OC(F)F)cc2F)cc1` [Example 258, N^5-(4-{[4-(difluoromethoxy)-2-fluorobenzoyl]amino}phenyl)-N^4-ethyl-1H-imidazole-4,5-dicarboxamide], the pIC50 in test [1] (setting [3]) is 5.35; against TNKS2, below 5.00.

Consider `CCNC(=O)c1nc[nH]c1C(=O)Nc1ccc(NC(=O)c2ccc(OC(F)(F)F)cc2F)cc1` [Example 262, N^4-ethyl-N^5-(4-{[2-fluoro-4-(trifluoromethoxy)benzoyl]amino}phenyl)-1H-imidazole-4,5-dicarboxamide], for which the values for the negative logarithm of the IC50 (pIC50) (in test [1] (setting [3]); against TNKS2) were 5.06 and below 5.00, respectively.
